Key:
SGLT2 = biological target: T1, SGLT2 (Homo sapiens, UniProt P31639); experiment: SGLT2 activity measurement: 14C-AMG uptake in BHK cells transfected with SGLT2; format: cell-based; settings: AMG 2 mM, 37° C., 90 min
T1 construct: expressed in transfected cells
T1 sequence (P31639 1-672): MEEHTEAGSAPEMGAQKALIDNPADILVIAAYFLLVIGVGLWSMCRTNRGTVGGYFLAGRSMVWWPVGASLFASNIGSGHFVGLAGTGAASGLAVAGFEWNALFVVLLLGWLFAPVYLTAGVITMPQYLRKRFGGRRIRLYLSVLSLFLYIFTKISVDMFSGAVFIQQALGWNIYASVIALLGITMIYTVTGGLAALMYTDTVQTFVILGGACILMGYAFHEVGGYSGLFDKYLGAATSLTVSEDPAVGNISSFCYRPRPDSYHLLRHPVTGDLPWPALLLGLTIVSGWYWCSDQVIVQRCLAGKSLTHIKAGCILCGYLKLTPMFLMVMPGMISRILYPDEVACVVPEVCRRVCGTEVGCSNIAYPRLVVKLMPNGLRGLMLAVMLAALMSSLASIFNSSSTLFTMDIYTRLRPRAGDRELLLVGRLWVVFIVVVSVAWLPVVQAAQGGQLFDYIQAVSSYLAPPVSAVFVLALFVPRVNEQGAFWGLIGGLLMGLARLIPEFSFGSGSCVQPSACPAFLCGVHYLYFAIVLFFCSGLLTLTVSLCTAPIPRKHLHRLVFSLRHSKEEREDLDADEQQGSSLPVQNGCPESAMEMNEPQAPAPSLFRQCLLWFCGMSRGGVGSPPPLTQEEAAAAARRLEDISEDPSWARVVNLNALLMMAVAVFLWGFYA
Procedure, shortened: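 BHK21 cells stably expressing human SGLT2 took up 14C-AMG (added as 2 mM solution) ± compound for 90 min at 37 °C in Na+-containing HEPES/Tris buffer, pH 7.4. Uptake was measured by scintillation counting after lysis. Non-specific uptake was defined in sodium-free sucrose buffer.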

SGLT1 = biological target: T2, SGLT1 (Homo sapiens, UniProt P13866); experiment: SGLT1 activity measurement: 14C-AMG uptake in BHK cells transfected with SGLT1; format: cell-based; settings: AMG 50 μM, 37° C., 90 min
T2 construct: expressed in transfected cells
T2 sequence (P13866 1-664): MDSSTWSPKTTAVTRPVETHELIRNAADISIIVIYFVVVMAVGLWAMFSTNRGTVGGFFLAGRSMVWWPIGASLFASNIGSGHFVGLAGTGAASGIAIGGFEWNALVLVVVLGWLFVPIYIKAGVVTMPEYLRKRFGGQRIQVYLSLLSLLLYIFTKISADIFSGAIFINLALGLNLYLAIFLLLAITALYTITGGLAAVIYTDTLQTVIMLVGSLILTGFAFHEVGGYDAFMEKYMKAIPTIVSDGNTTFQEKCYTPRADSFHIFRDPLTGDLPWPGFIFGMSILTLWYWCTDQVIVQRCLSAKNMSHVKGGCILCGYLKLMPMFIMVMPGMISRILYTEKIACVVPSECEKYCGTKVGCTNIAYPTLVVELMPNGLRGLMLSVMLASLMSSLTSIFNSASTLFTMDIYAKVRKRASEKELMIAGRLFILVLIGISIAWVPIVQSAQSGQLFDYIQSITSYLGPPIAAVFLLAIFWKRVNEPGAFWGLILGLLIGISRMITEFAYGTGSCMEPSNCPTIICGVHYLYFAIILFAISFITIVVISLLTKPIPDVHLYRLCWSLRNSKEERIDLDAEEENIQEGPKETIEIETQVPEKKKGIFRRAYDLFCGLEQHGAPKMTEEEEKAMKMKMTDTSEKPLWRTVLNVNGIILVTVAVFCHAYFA
Procedure, shortened: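 BHK21 cells stably transfected with human SLC5A1 were incubated with 14C-AMG (added solution at 50 μM) ± compound for 90 min at 37 °C. The buffer was 140 mM NaCl, HEPES/Tris, pH 7.4. Lysed-cell radioactivity was counted by scintillation, and non-specific uptake was measured in sodium-free sucrose buffer.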

SMILES | IC50 (SGLT2) [nM] | IC50 (SGLT1) [µM]
Cc1cccc(C)c1Nc1c(-c2c(C)cc(OC3CCCCO3)cc2OCC(N)=O)nc2ccc(F)cn12 (centres unmarked) [Compound A177, 2-[2-(Aminocarbonylmethoxy)-4-(tetra-hydropyran-2-yloxy)-6-methylphenyl]-3-(2,6-dimethylphenylamino)-6-fluoroimidazo[1,2-a]-pyridine] | 10 to 1000 | > 10
Cc1ccc(-c2nc3ccccn3c2Nc2c(C)cccc2C)c(OCC(N)=O)c1 [Compound A17, 2-[2-(Aminocarbonylmethoxy)-4-methylphenyl]-3-(2,6-dimethylphenylamino)-imidazo[1,2-a]-pyridine] | 10 to 1000 | > 10
COc1cc(C)c(-c2nc3c(F)cc(F)cn3c2Nc2c(C)cccc2C)c(OCC(N)=O)c1 [Compound A237, 2-[2-(Aminocarbonylmethoxy)-4-methoxy-6-methylphenyl]-3-(2,6-dimethylphenylamino)-6,8-difluoroimidazo[1,2-a]pyridine] | 10 to 1000 | 1 to 10
COc1cc(C)c(-c2nc3ccccn3c2Nc2c(Cl)cc(F)cc2Cl)c(OCC(N)=O)c1 [Compound A224, 2-[2-(Aminocarbonylmethoxy)-4-methoxy-6-methylphenyl]-3-(4-fluoro-2,6-dichlorophenyl-amino)imidazo[1,2-a]pyridine] | 10 to 1000 | 1 to 10
COc1cc(C)c(-c2nc3ccc(F)cn3c2Nc2c(C)cccc2Cl)c(OCC(N)=O)c1 [Compound A256, 2-[2-(Aminocarbonylmethoxy)-4-methoxy-6-methylphenyl]-3-(2-chloro-6-methylphenyl-amino)-6-fluoroimidazo[1,2-a]pyridine] | 10 to 1000 | 1 to 10
CCOc1cc(CC)c(-c2nc3ccc(F)cn3c2Nc2c(C)cccc2C)c(OCC(N)=O)c1 [Compound A196, 2-[2-(Aminocarbonylmethoxy)-4-ethoxy-6-ethyl-phenyl]-3-(2,6-dimethylphenylamino)-6-fluoro-imidazo[1,2-a]pyridine] | 10 to 1000 | > 10
CCc1cc(OC)cc(OCC(N)=O)c1-c1nc2c(F)cc(F)c(N)n2c1Nc1c(C)cccc1C [Compound A227, 2-[2-(Aminocarbonylmethoxy)-4-methoxy-6-ethylphenyl]-3-(2,6-dimethylphenylamino)-5-amino-6,8-difluoroimidazo[1,2-a]pyridine] | 10 to 1000 | 1 to 10
Cc1cccc2nc(-c3ccccc3OCC(N)=O)c(Nc3c(Cl)cccc3Cl)n12 [Compound A11, 2-[2-(Aminocarbonylmethoxy)phenyl]-3-(2,6-di-chlorophenylamino)-5-methylimidazo[1,2-a]-pyridine] | 10 to 1000 | 1 to 10
CCc1cc(OCC(N)=O)cc(OCC(N)=O)c1-c1nc2ccccn2c1Nc1c(C)cccc1C [Compound A167, 2-[2-(Aminocarbonylmethoxy)-4-(amino-carbonylmethoxy)-6-ethylphenyl]-3-(2,6-dimethylphenylamino)imidazo[1,2-a]pyridine] | 10 to 1000 | > 10
CCc1cc(OC)cc(OCC(N)=O)c1-c1nc2c(F)cc(F)cn2c1Nc1c(C)cccc1C [Compound A221, 2-[2-(Aminocarbonylmethoxy)-4-methoxy-6-ethylphenyl]-3-(2,6-dimethylphenylamino)-6,8-difluoroimidazo[1,2-a]pyridine] | 10 to 1000 | 1 to 10
COc1cc(C)c(-c2nc3c(F)cc(F)cn3c2Nc2c(C)cc(F)cc2C)c(OCC(N)=O)c1 [Compound A251, 2-[2-(Aminocarbonylmethoxy)-4-methoxy-6-methylphenyl]-3-(2,6-dimethyl-4-fluorophenyl-amino)-6,8-difluoroimidazo[1,2-a]pyridine] | 10 to 1000 | 1 to 10
CCc1cccc(C)c1Nc1c(-c2ccccc2OCC(N)=O)nc2ccc(F)cn12 [Compound A174, 2-[2-(Aminocarbonylmethoxy)phenyl]-3-(2-methyl-6-ethylphenylamino)-6-fluoroimidazo-[1,2-a]pyridine] | 10 to 1000 | > 10
Cc1cccc(C)c1Nc1c(-c2c(C)cc(OCCO)cc2OCC(N)=O)nc2ccc(F)cn12 [Compound A186, 2-[2-(Aminocarbonylmethoxy)-4-(2-hydroxy-ethoxy)-6-methylphenyl]-3-(2,6-dimethylphenyl-amino)-6-fluoroimidazo[1,2-a]pyridine] | 10 to 1000 | > 10
COc1cc(C)c(-c2nc3ccc(F)cn3c2Nc2c(C)cccc2C)c(OCC(N)=O)c1 [Compound A204, 2-[2-(Aminocarbonylmethoxy)-4-methoxy-6-methylphenyl]-3-(2,6-dimethylphenylamino)-6-fluoroimidazo[1,2-a]pyridine] | 10 to 1000 | 1 to 10
CCc1cc(OCC(N)=O)cc(OCC(N)=O)c1-c1nc2ccc(F)cn2c1Nc1c(C)cccc1C [Compound A230, 2-[2-(Aminocarbonylmethoxy)-4-(amino-carbonylmethoxy)-6-ethylphenyl]-3-(2,6-dimethylphenylamino)-6-fluoroimidazo[1,2-a]-pyridine] | 10 to 1000 | > 10
COc1cc(C)c(-c2nc3c(N)cccn3c2Nc2c(C)cccc2C)c(OCC(N)=O)c1 [Compound A191, 2-[2-(Aminocarbonylmethoxy)-4-methoxy-6-methylphenyl]-3-(2,6-dimethylphenylamino)-8-aminoimidazo[1,2-a]pyridine] | 10 to 1000 | > 10
CCc1cc(OC)cc(OCC(N)=O)c1-c1nc2ccc(F)cn2c1Nc1c(C)cccc1OC [Compound A215, 2-[2-(Aminocarbonylmethoxy)-4-methoxy-6-ethylphenyl]-3-(2-methoxy-6-methylphenyl-amino)-6-fluoroimidazo[1,2-a]pyridine] | 10 to 1000 | > 10
CCc1cc(OC)cc(OCC(N)=O)c1-c1nc2c(O)cccn2c1Nc1c(C)cccc1C [Compound A194, 2-[2-(Aminocarbonylmethoxy)-4-methoxy-6-ethylphenyl]-3-(2,6-dimethylphenylamino)-8-hydroxyimidazo[1,2-a]pyridine] | 1000 to 10000 | > 10
COCCOc1cc(C)c(-c2nc3ccc(F)cn3c2Nc2c(C)cccc2C)c(OCC(N)=O)c1 [Compound A184, 2-[2-(Aminocarbonylmethoxy)-4-(2-methoxy-ethoxy)-6-methylphenyl]-3-(2,6-dimethylphenyl-amino)-6-fluoroimidazo[1,2-a]pyridine] | 10 to 1000 | > 10
